Experimental findings from patent US9475812B2, “Pyridonaphthyridine type dual PI3K and mTOR inhibitor and its preparation and use” (Xuanzhu Pharma Co., Ltd., priority 2011, dated 2016) are described below.

Structures are written as SMILES. Read-outs that look alike come from different tables or passages of the source.

One data set concerns the target mTOR (Homo sapiens, UniProt P42345). Put plainly: mTOR enzymology assay (in vitro enzyme inhibition, ULight-4E-BP1 peptide, Lance signal). The data set is classed as biochemical. Conditions: mTOR 2.5 nM, ULight-4E-BP1 peptide 50 nM, ATP 10.8 uM, 60 mins. How it is done: mTOR Enzymology Assay Procedures
1. The agent's final concentrations and the compound solution preparation
1.1 mTOR (2.5 nM) kinase solution, substrate ULight-4E-BP1 peptide 50 nM, ATP 10.8 uM;
(§1) 1.2 4 folds kinase solution, 2 folds substrate and ATP solution;
(§2) 1.3 test compound 1 mM stock solution (final concentration 100 folds of DMSO solution).
(§3) 2.1 test compound 1 mM, diluted with DMSO 4 folds gradient, and then diluted with kinase buffer 25 folds;
(§4) 2.2 To each well in a 384-well plate was added 2.5 μL series diluted compounds;
2.3 To each well was added 2.5 μL 4 fold kinase solution;
(§5) 2.4 To each well was added 2.5 μL substrate/ATP solution;
(§6) 2.5 incubated for 60 mins;
2.6 Envision data reading Lance signal (665 nM).
The inhibition ratio %=(Lance signal−min)/(max−min)×100
wherein “max” is the DMSO control containing the enzyme but not containing the compound; “min” is the control without the kinase.
Input the data into GraphPad Prism5.0 to plot a curve and obtain IC50.

Another data set has as its target PI3Kα (Homo sapiens, UniProt P42336). As to the kind of experiment: PI3Kα enzymology assay (in vitro enzyme inhibition). The format is biochemical. The note with it: PI3Kα 1.65 nM, PIP2 50 μM, ATP 25 μM, 60 mins. How it is done: PI3Kα Enzymology Assay Procedures
1. The agent's final concentrations and the compound formulation
1.1 PI3Kα (1.65 nM) kinase solution, substrate PIP2 50 μM, ATP 25 μM;
as §1, §2, §3, §4
2.3 To each well was added 2.5 μL 4 folds kinase solution;
as §5, §6
2.6 Envision data reading: Lance signal ([…]).
The inhibition ratio %=(sample RLU−min)/(max−min)×100
wherein “max” is the control without the kinase; “min” is the DMSO control containing the enzyme but not containing the compound.
Data were input into GraphPad Prism 5.0 to plot a curve and obtain IC50.

A further data set has as its system A549 cells. As to the kind of experiment: In vitro cellular inhibitory activity, XTT cell viability, A549. Conditions: Homo sapiens, 72 hours. The data set is classed as cell-based. How it is done: (§7) 1. Formulating the agents and the compounds: Formulating the PBS, the XTT working liquor, the paclitaxel stock solution and gradient dilute solutions thereof, and the stock solution of test compound and gradient dilute solutions of test compounds.
(§8) 2. Culturing cells: Thawing cells, Passing cells, Freezing and preserving cells.
(§9) Preparing the cell suspension;
(§10) The cell suspension was added to a 96-well plate, 100 μL per well;
(§11) The plate was placed in the incubator and incubated at 37° C. under 5% CO2 overnight.
(§12) Drugs were added to the cell culture plate. The plate was placed in the CO2 incubator and incubated for 72 hours.
(§13) 5. Testing the cell viability with the XTT method
(§14) The XTT working solution was added to the plate. The plate was placed in the CO2 incubator for 2 hours. Then the plate was placed in a microplate reader to read the absorbance at 450 nm.
(§15) 1) % inhibition=(Absorbance (Vehicle)−Absorbance(Compound))/(Absorbance(Vehicle)−Absorbance(positive control)×100%;
(§16) 2) Data were input into GraphPad Prism 5.0 to plot a curve and obtain IC50.

The next data set deals with U87MG cells. Put plainly: In vitro cellular inhibitory activity, XTT cell viability, U87MG. Conditions: Homo sapiens, U-87 MG, 72 hours. The data set is classed as cell-based. How it is done: as §7, §8, §9, §10, §11, §12, §13, §14, §15, §16
Background: Tetrazolium dyes change colour on reduction, which living cells bring about.

The nature of data set [1]: Pharmacokinetic assay in rat in vivo. Conditions: Sprague-Dawley (SD), plasma, male SD rats; for bioavailability: PO(4 mg/kg) vs IV, read-out: F(%) absolute bioavailability; for half-life: read-out: T1/2 (half-life) (converted). As to the method:
Male SD rats, each test substance, each administration, three rats were used, having a body weight of 200-250 g.
the present compounds: Compound 16, dissolved with 5% NMP+60% PEG400+35% sterile water for injection, other compounds, dissolved with 5% NMP+40% PEG400+55% sterile water for injection.
Blood collection: each of about 100 μL whole blood were collected at 0 h before administration (pre-administration), and at 0.083 h, 0.25 h, 0.5 h, 1 h, 2 h, 4 h, 6 h, 8 h and 24 h after administration. The collected blood samples were centrifuged at 8000 rpm in a high-speed centrifuge for 6 mins to separate the blood plasm. The separated plasm was freezing-preserved at −80° C. in a refrigerator.
Plasm sample analysis: The plasm sample was treated by a liquid-liquid extraction. 20 μL of the plasm was taken, subjected to a vortex at 1500 rpm for 10 mins, and then centrifuged at 12000 rpm for 5 mins. 400 μL of the supernatant was taken and blowed to dryness in the nitrogen gas. The resulting substance is re-dissolved in 200 μL methanol:water (1:1, V/V), and the solution was analyzed with LC-MS/MS.

The mark [2] stands for this setting: IV(2 mg/kg), dosage in Table 3 (Compound 16: 0.45 mg/kg).

PI3Kα, sequence (P42336 whole entry): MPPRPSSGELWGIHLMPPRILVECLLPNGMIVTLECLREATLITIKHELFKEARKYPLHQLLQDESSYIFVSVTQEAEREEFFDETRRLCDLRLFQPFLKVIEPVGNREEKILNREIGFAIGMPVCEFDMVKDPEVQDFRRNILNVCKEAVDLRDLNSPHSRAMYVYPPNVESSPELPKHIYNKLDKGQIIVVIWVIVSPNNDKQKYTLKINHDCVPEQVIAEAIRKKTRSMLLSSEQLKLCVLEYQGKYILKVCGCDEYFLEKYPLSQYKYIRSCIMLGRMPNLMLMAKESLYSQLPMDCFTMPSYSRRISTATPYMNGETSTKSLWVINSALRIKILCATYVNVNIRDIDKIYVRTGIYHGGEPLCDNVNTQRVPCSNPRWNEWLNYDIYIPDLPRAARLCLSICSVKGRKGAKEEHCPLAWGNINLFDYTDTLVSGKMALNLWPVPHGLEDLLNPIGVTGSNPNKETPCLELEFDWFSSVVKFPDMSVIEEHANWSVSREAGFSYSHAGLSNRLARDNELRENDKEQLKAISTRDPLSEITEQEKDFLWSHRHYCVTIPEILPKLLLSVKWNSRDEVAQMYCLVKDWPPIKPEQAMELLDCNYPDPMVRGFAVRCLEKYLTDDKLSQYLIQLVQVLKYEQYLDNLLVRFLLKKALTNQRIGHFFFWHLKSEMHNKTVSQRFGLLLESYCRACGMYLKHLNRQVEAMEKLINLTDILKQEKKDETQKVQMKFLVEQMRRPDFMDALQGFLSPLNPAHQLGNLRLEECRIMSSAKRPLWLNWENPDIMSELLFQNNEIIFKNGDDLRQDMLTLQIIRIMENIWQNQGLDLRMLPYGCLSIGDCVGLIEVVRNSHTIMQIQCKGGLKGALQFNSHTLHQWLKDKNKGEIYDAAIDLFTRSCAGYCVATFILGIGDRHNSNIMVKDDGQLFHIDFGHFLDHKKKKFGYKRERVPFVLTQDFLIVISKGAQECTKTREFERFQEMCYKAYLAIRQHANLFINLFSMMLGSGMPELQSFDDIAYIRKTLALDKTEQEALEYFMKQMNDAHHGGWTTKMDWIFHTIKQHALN
PI3Kα, sequence (P27986 whole entry partner): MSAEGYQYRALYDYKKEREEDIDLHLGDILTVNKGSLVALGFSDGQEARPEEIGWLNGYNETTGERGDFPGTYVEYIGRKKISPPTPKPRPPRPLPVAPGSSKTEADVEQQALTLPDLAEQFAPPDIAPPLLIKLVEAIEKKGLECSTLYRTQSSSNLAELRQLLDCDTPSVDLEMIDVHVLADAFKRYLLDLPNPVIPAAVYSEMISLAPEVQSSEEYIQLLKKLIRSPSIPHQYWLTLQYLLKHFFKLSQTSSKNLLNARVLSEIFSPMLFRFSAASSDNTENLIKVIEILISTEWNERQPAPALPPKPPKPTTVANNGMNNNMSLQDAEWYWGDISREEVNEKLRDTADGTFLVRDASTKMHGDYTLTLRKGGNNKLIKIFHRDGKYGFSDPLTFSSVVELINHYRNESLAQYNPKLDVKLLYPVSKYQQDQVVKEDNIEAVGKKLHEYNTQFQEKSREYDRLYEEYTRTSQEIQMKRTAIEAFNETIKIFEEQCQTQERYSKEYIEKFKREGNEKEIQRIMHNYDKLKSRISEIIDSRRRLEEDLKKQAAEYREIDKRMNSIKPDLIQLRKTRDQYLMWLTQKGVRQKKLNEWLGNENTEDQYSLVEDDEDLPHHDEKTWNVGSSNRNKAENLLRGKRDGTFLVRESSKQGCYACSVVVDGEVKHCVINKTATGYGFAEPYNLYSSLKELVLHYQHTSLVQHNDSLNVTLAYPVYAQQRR

`O=c1ccc2cnc3ccc(-c4ccc(CO)nc4)nc3c2n1-c1cccc(C(F)(F)F)c1` [Compound 18, 2-(6-(hydroxymethyl)pyridin-3-yl)-10-(3-(trifluoromethyl)phenyl)pyrido[3,2-c][1,5]naphthyridin-9(10H)-one]: the IC50 (as a rule, the concentration at which inhibition is half-maximal) against mTOR came out at 2.6 nM; at PI3Kα, 3.6 nM.
As for `O=c1ccc2cnc3ccc(-c4cnc5[nH]ccc5c4)nc3c2n1-c1cccc(C(F)(F)F)c1` [Compound 39, 2-(1H-pyrrolo[2,3-b]pyridin-5-yl)-10-(3-(trifluoromethyl)phenyl)pyrido[3,2-c][1,5]naphthyridin-9(10H)-one], the IC50 in the data set with A549 cells is 6.8 nM; at mTOR, 0.89 nM; against PI3Kα, 2.5 nM; in the data set on U87MG cells, 8.4 nM.
Take `Nc1ccc(-c2ccc3ncc4ccc(=O)n(-c5cccc(C(F)(F)F)c5)c4c3c2)cn1` [Torin-2, 9-(6-Aminopyridin-3-yl)-1-(3-(trifluoromethyl)phenyl)benzo[h][1,6]naphthyridin-2(1H)-one, reference compound]: the area under the curve AUC(0-t) (commonly the area under the concentration-time curve up to a stated or last time point) came to 259 ng·h/mL in data set [1] (setting [2]) and 104 ng·h/mL in data set [1] (PO(4 mg/kg), intragastric). Also, the bioavailability (in general, the share of a dose that reaches the circulation, judged against a reference dose that is usually intravenous) in data set [1] was found to be 22.6%. The IC50 was found to be 14.7 nM in the data set on A549 cells and 12.4 nM in the data set on U87MG cells.
As to `CC(=O)Nc1ccc(-c2ccc3ncc4ccc(=O)n(-c5cccc(C(F)(F)F)c5)c4c3n2)cn1` [Compound 15, N-(5-(9-oxo-10-(3-(trifluoromethyl)phenyl)-9,10-dihydropyrido[3,2-c][1,5]naphthyridin-2-yl)pyridin-2-yl)acetamide], the area under the curve AUC(0-t) in data set [1] (setting [2]) turned out to be 441 ng·h/mL; in data set [1] (PO(4 mg/kg), intragastric) it was 550 ng·h/mL. The half-life in data set [1] (setting [2]) was 0.71 h; in data set [1] (PO(4 mg/kg), intragastric), 2.36 h. The bioavailability in data set [1] worked out at 65%. The IC50 in the data set with A549 cells is 20.2 nM; at mTOR, 3 nM; against PI3Kα, 6.1 nM; in the data set on U87MG cells, 12.7 nM.
For `O=c1ccc2cnc3ccc(-c4ccc(-n5cccn5)nc4)nc3c2n1-c1cccc(C(F)(F)F)c1` [Compound 20, 2-(6-(1H-pyrazol-1-yl)pyridin-3-yl)-10-(3-(trifluoromethyl)phenyl)pyrido[3,2-c][1,5]naphthyridin-9(10H)-one], the IC50 against mTOR is 6 nM; against PI3Kα it was 104 nM.
`COc1ncc(-c2ccc3ncc4ccc(=O)n(-c5cccc(C(F)(F)F)c5)c4c3n2)cn1` [Compound 14, 2-(2-methoxypyrimidin-5-yl)-10-(3-(trifluoromethyl)phenyl)pyrido[3,2-c][1,5]naphthyridin-9(10H)-one]: in data set [1], the bioavailability was 42.3%. In data set [1] (PO(4 mg/kg), intragastric), the AUC(0-t) is 445 ng·h/mL and the half-life was 3.49 h. The molecule also displayed an IC50 against mTOR of 4.4 nM. For the same molecule, at PI3Kα, the IC50 is 8.8 nM.
`CC(C)(C#N)c1ccc(-n2c(=O)ccc3cnc4ccc(-c5ccc(N)nc5)nc4c32)cc1` [Compound 7, 2-(4-(2-(6-aminopyridin-3-yl)-9-oxopyrido[3,2-c][1,5]naphthyridin-10(9H)-yl)phenyl)-2-methylpropanenitrile]: half-maximal inhibition with U87MG cells (IC50) was put at 29.3 nM.
Turning to `N#Cc1ccc(-c2ccc3ncc4ccc(=O)n(-c5cccc(C(F)(F)F)c5)c4c3n2)cn1` [Compound 16, 5-(9-oxo-10-(3-(trifluoromethyl)phenyl)-9,10-dihydropyrido[3,2-c][1,5]naphthyridin-2-yl)-2-cyanopyridine], the exposure AUC(0-t) in data set [1] (setting [2]) was found to be 195 ng·h/mL; in data set [1] (PO(4 mg/kg), intragastric) it was 410 ng·h/mL. Also, the half-life in data set [1] (setting [2]) was 1.52 h; in data set [1] (PO(4 mg/kg), intragastric), 1.67 h. For the same molecule, the bioavailability in data set [1] is 23%. Further, the half-inhibitory concentration (IC50) on mTOR was found to be 8.7 nM; at PI3Kα, 58 nM.
Turning to `O=c1ccc2cnc3ccc(-c4c[nH]c5ncccc45)nc3c2n1-c1cccc(C(F)(F)F)c1` [Compound 17, 2-(1H-pyrrolo[2,3-b]pyridin-3-yl)-10-(3-(trifluoromethyl)phenyl)pyrido[3,2-c][1,5]naphthyridin-9(10H)-one], the area under the curve AUC(0-t) in data set [1] (setting [2]) is 723 ng·h/mL; in data set [1] (PO(4 mg/kg), intragastric), 212 ng·h/mL. In addition, the half-life was 0.61 h in data set [1] (setting [2]) and 5.68 h in data set [1] (PO(4 mg/kg), intragastric). Besides, the bioavailability in data set [1] stood at 20.8%. Besides, the results for the IC50 against mTOR and on PI3Kα were 5.3 nM and 45 nM, respectively.
On to `Nc1ncc(-c2ccc3ncc4ccc(=O)n(-c5cccc(C(F)(F)F)c5)c4c3n2)cn1` [Compound 13, 2-(2-aminopyrimidin-5-yl)-10-(3-(trifluoromethyl)phenyl)pyrido[3,2-c][1,5]naphthyridin-9(10H)-one], for which the area under the curve AUC(0-t) worked out at 711 ng·h/mL in data set [1] (setting [2]) and 707 ng·h/mL in data set [1] (PO(4 mg/kg), intragastric). The half-life is 0.62 h in data set [1] (setting [2]) and 1.44 h in data set [1] (PO(4 mg/kg), intragastric). In data set [1], the bioavailability worked out at 49%. Besides, the IC50 is 0.47 nM against mTOR, 2.4 nM against PI3Kα and 26.4 nM in the data set with U87MG cells.
For `CSc1ccc(-c2ccc3ncc4ccc(=O)n(-c5cccc(C(F)(F)F)c5)c4c3n2)cn1` [Compound 38, 2-(6-(methylthio)pyridin-3-yl)-10-(3-(trifluoromethyl)phenyl)pyrido[3,2-c][1,5]naphthyridin-9(10H)-one], the half-inhibitory concentration (IC50) against mTOR worked out at 5 nM; against PI3Kα, 17 nM.
As for `Nc1ccc(-c2ccc3ncc4ccc(=O)n(-c5cccc(C(F)(F)F)c5)c4c3n2)cn1` [Compound 1, 2-(6-aminopyridin-3-yl)-10-(3-(trifluoromethyl)phenyl)pyrido[3,2-c][1,5]naphthyridin-9(10H)-one], the exposure AUC(0-t) was 1310 ng·h/mL in data set [1] (setting [2]) and 1030 ng·h/mL in data set [1] (PO(4 mg/kg), intragastric). In addition, the half-life in data set [1] (setting [2]) was 1.79 h; in data set [1] (PO(4 mg/kg), intragastric), 2.78 h. Further, in data set [1], the bioavailability was determined as 43.7%. The IC50 in the data set with A549 cells came out at 11.9 nM; on mTOR, 0.87 nM; on PI3Kα it was 3.2 nM; in the data set with U87MG cells it was 8.9 nM.
As for `CN1CCN(c2ccc(-c3ccc4ncc5ccc(=O)n(-c6cccc(C(F)(F)F)c6)c5c4n3)cn2)CC1` [Compound 19, 2-(6-(4-methylpiperazin-1-yl)pyridin-3-yl)-10-(3-(trifluoromethyl)phenyl)pyrido[3,2-c][1,5]naphthyridin-9(10H)-one], the IC50 at mTOR was determined as 2.3 nM; on PI3Kα, 158 nM.
